Results on 54 molecules are retold here after ChEMBL document CHEMBL1153993, “Exploring a pocket for polycycloaliphatic groups in the CXCR3 receptor with the aid of a modular synthetic strategy” (Bioorg Med Chem Lett, 2009).

One experiment deals with T1, C-X-C chemokine receptor type 3 (Homo sapiens, UniProt P49682).
T1 sequence (P49682 whole entry): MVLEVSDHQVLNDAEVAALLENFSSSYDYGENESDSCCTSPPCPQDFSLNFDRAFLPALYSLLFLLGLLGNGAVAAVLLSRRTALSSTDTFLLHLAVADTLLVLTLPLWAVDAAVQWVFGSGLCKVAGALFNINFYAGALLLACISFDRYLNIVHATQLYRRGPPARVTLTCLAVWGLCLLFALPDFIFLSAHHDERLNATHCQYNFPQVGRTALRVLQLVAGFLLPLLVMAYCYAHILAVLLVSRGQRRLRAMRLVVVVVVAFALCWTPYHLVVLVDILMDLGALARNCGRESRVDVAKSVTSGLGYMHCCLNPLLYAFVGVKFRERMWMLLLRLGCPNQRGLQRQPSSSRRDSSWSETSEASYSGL
Description: Displacement of [125I]CXCL10 from human CXCR3 expressed in HEK293T cells. The class given is cell-based, HEK-293T.
Settings: not given
The molecule `c1ccc(CN2CCC(NC3C4CC5CC(C4)CC3C5)CC2)cc1` (stereo unspecified) had a Ki of 3980 nM.
Turning to `COc1cccc(CN2CCC(N[C@@H]3C[C@H]4CC[C@]3(C)C4(C)C)CC2)c1` (relative stereo), the inhibitory constant (Ki) is 7940 nM.
Consider `CCOC(=O)C1=C(NC2C3CC4CC(C3)CC2C4)CCN(Cc2ccc(Cl)cc2F)C1` (stereo unspecified), for which the affinity corresponds to a Ki of 5010 nM.
In the case of `Fc1cc(Cl)ccc1CN1CCC(N2CCCC2)CC1`, the Ki was more than 10000 nM.
The molecule `Fc1cc(Cl)ccc1CN1CCCC(NC2C3CC4CC(C3)CC2C4)C1` (stereo unspecified) showed an inhibition constant (Ki) of 2000 nM. This lies in the single-digit micromolar range.
`Fc1cc(Cl)ccc1CN1CCC(NC2C3CC4CC(C3)CC2C4)CC1` (stereo unspecified) showed a Ki of 158 nM.
`CC1(C)[C@@H]2CC[C@@]1(C)[C@H](NC1CCN(Cc3ccccn3)CC1)C2` (relative stereo) had a Ki of 7940 nM.
Molecule `Fc1cc(Cl)ccc1CNC1CCN(C2C3CC4CC(C3)CC2C4)CC1` (stereo unspecified) had a Ki of 3980 nM.
Same read-out and setting: the value for `Fc1cc(Cl)ccc1CN1CCC(NCC23CC4CC(CC(C4)C2)C3)CC1` was 501 nM.
With `CC(=O)Nc1ccc(CN2CCC(N[C@@H]3C[C@H]4CC[C@]3(C)C4(C)C)CC2)cc1` (relative stereo), the inhibition constant Ki is more than 10000 nM.
`CC1(C)C2CC[C@@]1(C)C(CNC1CCN(Cc3ccc(Cl)cc3F)CC1)C2` (mixture of isomers): affinity was put at a Ki of 2000 nM.
For `Fc1cc(Cl)ccc1CN1CCCN(C2C3CC4CC(C3)CC2C4)CC1` (stereo unspecified), the inhibition constant Ki was 1580 nM.
As to `COc1ccc(CN2CCC(N[C@@H]3C[C@H]4CC[C@]3(C)C4(C)C)CC2)cc1` (relative stereo), the inhibition constant Ki is 2000 nM.
The molecule `CN1C2CCC1CC(NC1CCN(Cc3ccc(Cl)cc3F)CC1)C2` (mixture of isomers) showed an inhibition constant Ki of more than 10000 nM.
Regarding `CN(C)c1ccc(CN2CCC(N[C@@H]3C[C@H]4CC[C@]3(C)C4(C)C)CC2)cc1` (relative stereo), the affinity corresponds to a Ki of 3980 nM.
Molecule `Fc1cc(Cl)ccc1CN1CCC(NC2CCCCC2)CC1` had a Ki of 5010 nM.
As for `COc1ccc(CN2CCC(N[C@@H]3C[C@H]4CC[C@]3(C)C4(C)C)CC2)c(F)c1`, the Ki is 1580 nM.
`Fc1cc(Cl)ccc1CN1CCC(NCCC(c2ccccc2)c2ccccc2)CC1` showed a Ki of more than 100000 nM.
Still for that read-out and setting: the value for `Fc1cc(Cl)ccc1CN1CCC(NC2C3CC4CC2CN(C4)C3)CC1` (stereo unspecified) was 7940 nM; that for `Clc1ccc(CN2CCC(NC34CC5CC(CC(C5)C3)C4)CC2)cc1` was 1000 nM; that for `CC12CC3CC(C)(CC(C1)C3NC1CCN(Cc3ccc(Cl)cc3F)CC1)C2` (stereo unspecified) was 501 nM.
As to `COc1ccccc1CN1CCC(N[C@@H]2C[C@H]3CC[C@]2(C)C3(C)C)CC1` (relative stereo), the Ki was 10000 nM. This Ki lies about 20-fold higher than the previous one.
`CC1(C)[C@@H]2CC[C@@]1(C)[C@H](NC1CCN(Cc3cc(F)cc(C(F)(F)F)c3)CC1)C2` (relative stereo) showed a Ki of 3980 nM.
In turn, `CC1(C)[C@@H]2CC[C@@]1(C)[C@H](NC1CCN(Cc3ccc(F)c(C(F)(F)F)c3)CC1)C2` (relative stereo) showed a Ki of 2510 nM.
Take `COC(=O)c1ccc(CN2CCC(N[C@@H]3C[C@H]4CC[C@]3(C)C4(C)C)CC2)cc1`: the inhibitory constant (Ki) is 3160 nM. The Ki values of the last two molecules are within 1.5-fold of each other.
Turning to `Fc1cc(Cl)ccc1CN1CCC(NCC2C3CC4CC(C3)CC2C4)CC1` (stereo unspecified), the Ki is 1000 nM.
For `O=C(Nc1ccc(Cl)cc1F)N1CCC(NC2C3CC4CC(C3)CC2C4)CC1` (stereo unspecified), the Ki is more than 10000 nM.
Still for that read-out and setting: the value for `Fc1cc(Cl)ccc1CN1CCC(CNC2C3CC4CC(C3)CC2C4)CC1` (stereo unspecified) was 3980 nM; that for `CC1(C)[C@@H]2CC[C@@]1(C)[C@H](NC1CCN(Cc3ccc(N=[N+]=[N-])cc3)CC1)C2` (relative stereo) was 794 nM; that for `CC1(C)[C@@H]2CC[C@@]1(C)[C@H](NC1CCN(Cc3ccco3)CC1)C2` (relative stereo) was 6310 nM.
In turn, `CCOC(=O)C1CN(Cc2ccc(Cl)cc2F)CCC1NC1C2CC3CC(C2)CC1C3` (stereo in doubt; 32) had a Ki of 5010 nM.
Still for that read-out and setting: the value for `CC(c1ccc(Cl)cc1F)N1CCC(NC2C3CC4CC(C3)CC2C4)CC1` (stereo unspecified) was 5010 nM; that for `CN(C1CCN(Cc2ccc(Cl)cc2F)CC1)C1C2CC3CC(C2)CC1C3` (stereo unspecified) was 1260 nM.
For `Clc1ccc(CN2CCC(NC3C4CC5CC(C4)CC3C5)CC2)cc1` (stereo unspecified), the Ki was 398 nM.
Still for that read-out and setting: the value for `CC1(C)[C@@H]2CC[C@@]1(C)[C@H](NC1CCN(Cc3c(F)c(F)c(F)c(F)c3F)CC1)C2` (relative stereo) was 501 nM; that for `CC1(C)[C@@H]2CC[C@@]1(C)[C@H](NC1CCN(Cc3ccc(N)cc3)CC1)C2` (relative stereo) was 6310 nM.
`CC1(C)[C@@H]2CC[C@@]1(C)[C@H](NC1CCN(Cc3ccc(OC(F)(F)F)cc3)CC1)C2` (relative stereo) gave a Ki of 794 nM.
`CCOC(=O)C1CN(Cc2ccc(Cl)cc2F)CCC1NC1C2CC3CC(C2)CC1C3` (single isomer, unassigned) gave a Ki of 3980 nM.
`Fc1cc(Cl)ccc1CN1CCC(NCC2CCCCC2)CC1`: the Ki is 3980 nM.
For the molecule `Fc1cc(Cl)ccc1CN1CCC(N2CCc3ccccc3C2)CC1`, the Ki was 5010 nM.
`CC1(C)[C@@H]2CC[C@@]1(C)[C@H](NC1CCN(Cc3ccccc3F)CC1)C2` (relative stereo) had a Ki of 6310 nM.
The molecule `CC1(C)[C@@H]2CC[C@@]1(C)[C@H](NC1CCN(Cc3ccccc3)CC1)C2` (relative stereo) showed a Ki of 2510 nM. Against the preceding molecule, the Ki is about 2.5-fold lower.
`Fc1cc(Cl)ccc1CN1CCC(NC/C2=C/CCCCCC2)CC1` gave an inhibition constant (Ki) of 2510 nM.
Molecule `CCNC(=O)c1cnc(N2CCN(C3CCN(Cc4ccc(Cl)cc4)CC3)[C@@H](CC)C2)c(Cl)c1` gave a Ki of 3.16 nM.
`CC1(C)[C@@H]2CC[C@@]1(C)[C@H](NC1CCN(Cc3ccc(Cl)cc3)CC1)C2` (relative stereo) showed a Ki of 501 nM.
As to `CC1(C)[C@@H]2CC[C@@]1(C)[C@@H](NC1CCN(Cc3ccc(Cl)cc3F)CC1)C2` (relative stereo; 62), the Ki was 631 nM.
Take `CC1(C)[C@@H]2CC[C@@]1(C)[C@H](NC1CCN(Cc3ccc(Cl)cc3F)CC1)C2` (relative stereo): the Ki was 398 nM.
As to `CN(C1CCN(Cc2ccc(Cl)cc2F)CC1)[C@H]1C[C@H]2CC[C@]1(C)C2(C)C` (relative stereo), the affinity corresponds to a Ki of 1260 nM.
For the molecule `CC1(C)C2CC=C(CNC3CCN(Cc4ccc(Cl)cc4F)CC3)C1C2` (stereo unspecified), the affinity, expressed as Ki, was 3980 nM.
With `CC1(C)[C@@H]2CC[C@@]1(C)[C@H](NC1CCN(Cc3cccnc3)CC1)C2` (relative stereo), the Ki is more than 10000 nM.
Same read-out and setting: the same measure for `CN(CC1C2CC3CC(C2)CC1C3)C1CCN(Cc2ccc(Cl)cc2F)CC1` (stereo unspecified): 2510 nM; for `CC1(C)[C@@H]2CC[C@@]1(C)[C@H](NC1CCN(Cc3ccc(F)cc3F)CC1)C2` (relative stereo): 2000 nM.
As for `CC1(C)[C@@H]2CC[C@@]1(C)[C@@H](NC1CCN(Cc3ccc(Cl)cc3F)CC1)C2` (relative stereo; 60), the inhibitory constant (Ki) was 398 nM. This Ki is about 5-fold lower than that of the molecule before.
`CN(C1CCN(Cc2ccc(Cl)cc2F)CC1)[C@@H]1C[C@H]2CC[C@]1(C)C2(C)C` (relative stereo) had a Ki of 1580 nM. This Ki is about 4-fold higher than that of the molecule before.

The target in the next experiment is T2, C-X-C chemokine receptor type 3 (Homo sapiens) (UniProt P49682).
T2 sequence (whole entry): T1 sequence (P49682 whole entry)
Description: Antagonist activity at human CXCR3 expressed in HEK293T cells coexpressing Galphaqi5 assessed as inhibition of CXCL10-induced [3H]inositol phosphate levels by liquid scintillation counting. The class given is functional, cell-based. As to conditions: HEK-293T.
As for `Fc1cc(Cl)ccc1CN1CCC(NC2C3CC4CC(C3)CC2C4)CC1` (stereo unspecified), the negative logarithm of the Kb (pKb) is 6.1.
As to `CC1(C)[C@@H]2CC[C@@]1(C)[C@H](NC1CCN(Cc3ccc(Cl)cc3F)CC1)C2` (relative stereo), the pKb is 5.7.
